Results as given in patent publication US20220162188A1, “ISOPRENOIDS AND METHODS OF MAKING THEREOF” (NORTH CAROLINA STATE UNIVERSITY, priority 2019, published 2022).
Entries after “also recorded” stand apart in the source; their conditions may differ.

Assays:
[1] = target: T1, isopentenyl phosphate kinase (IPK) (Thermoplasma acidophilum, UniProt Q9HLX1); type: biochemical; settings: overnight reaction
T1 sequence (Q9HLX1 1-245): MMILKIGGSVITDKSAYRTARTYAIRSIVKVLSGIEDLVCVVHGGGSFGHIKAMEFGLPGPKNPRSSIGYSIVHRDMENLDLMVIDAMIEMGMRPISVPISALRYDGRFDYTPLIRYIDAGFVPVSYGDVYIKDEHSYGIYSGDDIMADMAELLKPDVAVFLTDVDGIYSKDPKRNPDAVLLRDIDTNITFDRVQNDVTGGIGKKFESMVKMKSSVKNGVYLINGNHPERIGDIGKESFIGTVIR
Protocol: Since the substrate scope of IPK has yet to be fully described, here IPK was tested against a wider panel of substrates. The IPK gene from T. acidophilum was codon optimized and subcloned into pET28a. Following expression in E. coli BL21 DE3, the enzyme was purified via metal-chelation affinity chromatography. Next, the substrate specificity of the enzyme was determined in vitro using a panel of synthesized alcohol monophosphates using low resolution mass spectrometry (FIG. 25). The availability of alcohol diphosphate byproducts (FIG. 23) conveniently served as product standards.
Assay for Initial Activity of Monophosphates with IPK. Fractions from the synthesis of the diphosphates on a 400 μmol scale containing the monophosphates were concentrated in vacuo and resuspended to 5 mg/mL in water. Enzymatic reaction mixtures contained 50 mM Tris (pH 8.0), 2.5 mM MgCl2, 0.05 mM DTT, 1 mM ATP, and 4.2 μg of enzyme in a 200 μL reaction with 40 μL of substrate (1 mg/mL final). A reaction mixture without enzyme was setup as a control. Reactions were incubated overnight at 37° C. and checked by low-resolution LC-MS for diphosphate product formation. Standards from the isolated diphosphates were used to confirm retention time and mass. Reactions with a >10% diphosphate generation as compared to the no enzyme control were selected for kinetic experiments. LC-MS experiments were conducted using a Shimadzu LC-MS 2020 single quadrupole instrument with a Phenomenex Kinetex UPLC C18 column (2.1×50 mm, […], 100 Å pores) column. 5 μL was injected onto and separated using a series of linear gradients developed from 0.1% formic acid in H2O (A) to 0.1% formic acid in acetonitrile (B) at 0.2 mL/min using the following protocol: 0-2.2 min, 95-1% A; 2.21-2.6 min, 1% A; 2.61-2.62 min, 1-95% A; 2.63-3.5 min, 95% A. Products of enzymatic reactions were verified by mass and comparison with diphosphate standards previously synthesized.

FgaPT2 = FgaPT2 (Aspergillus fumigatus, UniProt Q50EL0); assay: Substrate specificity of wild-type prenyltransferase FgaPT2 in vitro; type: biochemical; settings: pyrophosphate 3 mM, FgaPT2 200 μg/mL, Trp 1 mM
Protocol: Broad substrate specificity of the wild-type prenyltransferase FgaPT2 in vitro. Each chemically synthesized pyrophosphate (3 mM) was tested for activity with purified FgaPT2 (200 μg/mL) and Trp (1 mM). The product mixtures were analyzed by HR-LCMS to identify the mass ions consistent with the expected alkylated product. The substrate (Trp) and product peak areas were determined by high performance liquid chromatography (HPLC) at a detection wavelength of 269 nm, and the conversion was calculated. The results are illustrated in FIG. 56 and FIG. 57.

[2] = target: T1, isopentenyl phosphate kinase (IPK); assay: NADH-coupled kinetic assay of IPK; settings: for kcat fold higher than that with IP: relative to natural substrate IP
Protocol: (§1) The data was fitted to the Michaelis-Menten equation using SigmaPlot, and the kinetic parameters (kcat, Km, kcat/Km) extracted.
(§2) NADH-Coupled Kinetic Assays. NADH coupled assays were performed with purified enzymes. Reaction progress was monitored by absorbance at 340 nm at 30° C. in a 96-well plate using a Biotek Synergy 4 plate reader (Winooski, Vt.). 200 μL enzymatic mixtures contained 50 mM Tris (pH 8.0), 25 mM KCl, 2.5 mM MgCl2, 0.05 mM DTT, 1 mM ATP, 320 μM NADH, 400 μM phosphoenolpyruvate, 0.5 U pyruvate kinase, 0.7 U lactate dehydrogenase, and various amounts of substrate. Conditions were verified by doubling enzyme and verifying the initial rate was doubled as well.
(§3) Kinetics of IPK were done with purified enzyme using 0.09 μg of enzyme per well. Serial dilution was used to generate specific concentrations of substrates (3125, 1562, 781, 625, 391, 195, 98, 24, 12, and 3 μM). Each condition was performed in triplicate. Nonlinear regression was fitted using SigmaPlot (Systat Software Inc., San Jose, Calif., USA).

FgaPT2 M328G = FgaPT2 M328G (Aspergillus fumigatus, UniProt Q50EL0, M328G); assay: Substrate specificity of FgaPT2 mutant M328G in vitro; type: biochemical; settings: pyrophosphate 3 mM, enzyme 350 μg/mL, Trp 1 mM
Protocol: Altered substrate specificity of the prenyltransferase FgaPT2 mutant M328G in vitro. Each chemically synthesized pyrophosphate (3 mM) was tested for activity with purified FgaPT2 M328 (350 μg/mL) and Trp (1 mM). […] The results are illustrated in FIG. 58 and FIG. 59.

FtmPT1 M364G = FtmPT1 M364G (Aspergillus fumigatus, UniProt Q4WAW7, M364G); settings: pyrophosphate 2 mM, cyclic dipeptide 1 mM
Protocol: Each chemically synthesized pyrophosphate (2 mM) and cyclic dipeptide (1 mM) were tested for activity with purified FtmPT1 (100 mg/mL). […] The substrate (cyclic dipeptide) and product peak areas were determined by HPLC at a detection wavelength of 254 nm, and the conversion was calculated.

CpaD I329G = CpaD I329G (Aspergillus oryzae, UniProt F5HN73, I329G); assay: Substrate specificity of prenyltransferase mutant CpaD I329G in vitro; type: biochemical; settings: pyrophosphate 2 mM, cyclic dipeptide 1 mM, enzyme 1 mg/mL
Source text: Altered substrate specificity of the prenyltransferase mutant CpaD 1329G in vitro. […] The results are illustrated in FIG. 62 and FIG. 63.

PhoN = assay: Substrate specificity of wild-type PhoN, HR-LCMS; type: biochemical, Shigella flexneri; settings: alcohol 100 mM, PhoN 20 μg/mL, ATP 50 mM
Protocol: Broad substrate specificity of wild-type PhoN. Each commercially available alcohol (100 mM) was tested for activity with purified PhoN (20 μg/mL) and ATP (50 mM). The product mixtures were analyzed by high resolution liquid chromatography mass spectrometry (HR-LCMS) to quantify the conversion of alcohol to mono-phosphate. Quantification was achieved by the addition of an internal standard (either geranyl phosphate or cinnamyl monophosphate) at known fixed concentration. The results are illustrated in FIG. 54 and FIG. 55.

[3] = test system: lycopene production via the DXP pathway; assay: Lycopene colorimetric reporter assay; type: cell-based; settings: Fs 0.5 μM; E. coli BL21Tuner(DE3) lycopene reporter strain expressing IPK
[4] = target: IspA, a farnesyl diphosphate synthase (FPPase) (Escherichia coli, UniProt P22939); settings: wild-type IspA, DMAPP as starter unit
FtmPT1 = FtmPT1 (Aspergillus fumigatus, UniProt Q4WAW7); type: biochemical; settings: pyrophosphate 2 mM, cyclic dipeptide 1 mM
CpaD = CpaD (Aspergillus oryzae, UniProt F5HN73); assay: Substrate specificity of prenyltransferase CpaD in vitro; type: biochemical; settings: pyrophosphate 0.3 mM, cyclic dipeptide 0.25 mM, CpaD 1 mg/mL
Protocol: Broad substrate specificity of the prenyltransferase CpaD in vitro. Each chemically synthesized pyrophosphate (0.3 mM) and cyclic dipeptide (0.25 mM) were tested for activity with purified CpaD (1 mg/mL). […] The results are illustrated in FIG. 60 and FIG. 61.

[5] = substrate: C=C(C)CCOP(=O)(O)O; assay: purified protein, by the assay type; settings: other: IPK with monophosphorylated substrate, ± SD of the mean, 1 mM ATP, 30° C., pH 8.0
Protocol: as §1, §2, §3

[6] = substrate: CC(C)=CCOP(=O)(O)O; assay: purified protein, by the assay type; settings: other: IPK with monophosphorylated substrate, ± SD of the mean, 1 mM ATP, 30° C., pH 8.0
Protocol: as §1, §2, §3

Chain of FtmPT1 M364G (Q4WAW7 whole entry M364G): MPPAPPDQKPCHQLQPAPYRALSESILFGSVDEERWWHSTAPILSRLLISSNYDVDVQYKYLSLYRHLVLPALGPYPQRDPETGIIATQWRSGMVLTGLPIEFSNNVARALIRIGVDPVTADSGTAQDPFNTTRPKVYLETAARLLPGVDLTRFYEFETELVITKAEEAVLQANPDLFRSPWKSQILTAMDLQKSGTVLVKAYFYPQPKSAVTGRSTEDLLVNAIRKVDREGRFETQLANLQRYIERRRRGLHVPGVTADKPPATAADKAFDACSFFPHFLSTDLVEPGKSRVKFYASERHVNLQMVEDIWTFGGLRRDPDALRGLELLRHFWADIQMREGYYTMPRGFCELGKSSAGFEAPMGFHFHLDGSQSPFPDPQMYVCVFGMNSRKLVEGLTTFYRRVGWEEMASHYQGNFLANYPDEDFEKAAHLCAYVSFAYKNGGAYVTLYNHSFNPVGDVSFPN
Chain of IspA, a farnesyl diphosphate synthase (FPPase) (P22939 whole entry): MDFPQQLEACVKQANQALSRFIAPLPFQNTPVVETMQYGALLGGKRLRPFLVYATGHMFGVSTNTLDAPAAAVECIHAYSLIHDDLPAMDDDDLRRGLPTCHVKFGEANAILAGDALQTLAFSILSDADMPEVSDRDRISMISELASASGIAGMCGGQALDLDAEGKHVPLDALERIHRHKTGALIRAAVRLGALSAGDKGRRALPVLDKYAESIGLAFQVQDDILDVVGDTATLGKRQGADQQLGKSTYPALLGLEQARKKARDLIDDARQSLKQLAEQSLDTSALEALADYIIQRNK
Chain of CpaD I329G (F5HN73 whole entry I329G): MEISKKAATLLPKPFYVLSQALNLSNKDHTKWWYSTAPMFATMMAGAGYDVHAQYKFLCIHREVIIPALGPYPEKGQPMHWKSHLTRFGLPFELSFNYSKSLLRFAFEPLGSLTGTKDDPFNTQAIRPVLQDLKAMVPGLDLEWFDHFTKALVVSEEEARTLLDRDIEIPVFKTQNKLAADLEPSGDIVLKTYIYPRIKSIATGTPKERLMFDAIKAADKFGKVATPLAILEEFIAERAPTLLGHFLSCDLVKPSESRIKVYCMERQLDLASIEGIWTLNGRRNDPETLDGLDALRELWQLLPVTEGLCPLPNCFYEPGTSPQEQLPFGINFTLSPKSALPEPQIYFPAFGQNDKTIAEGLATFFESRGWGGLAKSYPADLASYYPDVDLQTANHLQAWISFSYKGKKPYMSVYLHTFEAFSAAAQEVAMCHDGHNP
Chain of FgaPT2 (Q50EL0 whole entry): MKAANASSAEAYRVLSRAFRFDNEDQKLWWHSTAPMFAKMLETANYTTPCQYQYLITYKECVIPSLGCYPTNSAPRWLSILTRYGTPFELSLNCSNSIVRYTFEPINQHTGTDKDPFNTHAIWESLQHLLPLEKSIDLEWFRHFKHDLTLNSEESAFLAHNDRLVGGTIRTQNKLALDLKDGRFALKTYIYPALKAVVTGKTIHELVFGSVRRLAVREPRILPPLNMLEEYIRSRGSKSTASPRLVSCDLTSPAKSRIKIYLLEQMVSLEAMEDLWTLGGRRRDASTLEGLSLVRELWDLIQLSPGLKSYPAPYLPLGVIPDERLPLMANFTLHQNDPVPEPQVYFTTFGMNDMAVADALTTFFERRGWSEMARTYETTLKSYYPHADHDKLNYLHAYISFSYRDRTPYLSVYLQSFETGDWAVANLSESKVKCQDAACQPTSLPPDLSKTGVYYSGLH
Chain of FgaPT2 M328G (Q50EL0 whole entry M328G): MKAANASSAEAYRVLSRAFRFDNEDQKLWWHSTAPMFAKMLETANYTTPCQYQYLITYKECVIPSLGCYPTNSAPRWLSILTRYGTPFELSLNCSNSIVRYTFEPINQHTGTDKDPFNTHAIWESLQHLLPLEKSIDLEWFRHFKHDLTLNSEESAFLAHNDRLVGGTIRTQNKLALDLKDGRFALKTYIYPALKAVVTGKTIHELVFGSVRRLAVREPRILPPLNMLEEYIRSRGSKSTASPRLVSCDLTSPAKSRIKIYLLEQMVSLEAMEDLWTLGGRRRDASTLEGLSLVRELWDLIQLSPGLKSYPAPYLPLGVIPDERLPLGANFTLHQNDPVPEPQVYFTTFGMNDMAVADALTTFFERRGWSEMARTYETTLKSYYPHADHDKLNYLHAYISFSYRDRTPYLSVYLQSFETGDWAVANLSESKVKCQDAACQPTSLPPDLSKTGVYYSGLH
Chain of FtmPT1 (Q4WAW7 whole entry): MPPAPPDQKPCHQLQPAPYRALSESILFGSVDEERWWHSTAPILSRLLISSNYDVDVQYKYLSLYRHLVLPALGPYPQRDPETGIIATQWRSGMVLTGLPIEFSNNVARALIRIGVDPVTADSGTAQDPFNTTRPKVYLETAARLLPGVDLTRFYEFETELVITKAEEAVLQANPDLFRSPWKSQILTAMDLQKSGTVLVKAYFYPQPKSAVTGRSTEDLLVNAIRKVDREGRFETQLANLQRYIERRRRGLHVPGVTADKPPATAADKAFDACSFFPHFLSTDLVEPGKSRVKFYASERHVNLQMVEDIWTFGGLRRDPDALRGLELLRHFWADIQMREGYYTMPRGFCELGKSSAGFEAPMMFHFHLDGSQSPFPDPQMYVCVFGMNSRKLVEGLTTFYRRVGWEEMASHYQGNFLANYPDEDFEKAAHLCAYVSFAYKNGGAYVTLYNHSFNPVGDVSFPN
Chain of CpaD (F5HN73 whole entry, species assumed): as the sequence (F5HN73 whole entry I329G) above, with G329I counted along it

In the case of `CC(C)=CCC/C(C)=C\COP(=O)(O)O` [NP, neryl monophosphate], the “phosphorylation by IPK to the corresponding pyrophosphate, as judged by MS” value (shortened to “phosphorylation by IPK”) [1] is reported as “did not result in detection of the corresponding pyrophosphate”.

In the case of `C=CCCCOP(=O)(O)O` [Substrate 6], the “FgaPT2-catalyzed alkylation of Trp: expected product detected” value (“FgaPT2-catalyzed alkylation of Trp” below) (FgaPT2) is reported as “mass ions were detected by HR-LCMS consistent with the expected product” and the “fold drop in kcat/Km” value ([2]; between 1 and 6) is reported as 3 fold.

In the case of `CCC/C=C/COP(=O)(O)O` [Substrate 8], the “FgaPT2-catalyzed alkylation of Trp” value (FgaPT2) is reported as “mass ions were detected by HR-LCMS consistent with the expected product” and the “fold decrease in kcat/Km” value ([2]; π-bond geometry of 7 switched from Z to E in 8) is reported as 17 fold.

With `C=CCCOP(=O)(O)O` [Substrate 1] the “FgaPT2 M328G-catalyzed alkylation of Trp: expected product detected” value (“FgaPT2 M328G-catalyzed alkylation of Trp” below) (FgaPT2 M328G) was “products detected by HPLC and confirmed by LR-LCMS”, the “kcat fold higher than that with IP” value [2] was 4.25 fold and the “FtmPT1 M364G-catalyzed alkylation of cyclic dipeptide: expected product detected” value (from here on “FtmPT1 M364G-catalyzed alkylation”) (FtmPT1 M364G) was “products detected by HPLC and confirmed by LR-LCMS”. For the same molecule, the “CpaD I329G-catalyzed alkylation of cyclic dipeptide: expected product detected” value (“CpaD I329G-catalyzed alkylation” below) (CpaD I329G) was “products detected by HPLC and confirmed by LR-LCMS” and the “PhoN-catalyzed phosphorylation of alcohol: expected product detected” value (“PhoN-catalyzed phosphorylation” for short) (PhoN) was “mass ions were detected by HR-LCMS consistent with the expected product”.

With `O=CN(O)CCCP(=O)(O)O` [Fs, fosmidomycin] the lycopene production [3] was “almost completely inhibited lycopene production”.

For `C#CCCCOP(=O)(O)O` [Substrate 4], the “FgaPT2 M328G-catalyzed alkylation of Trp” value (FgaPT2 M328G) was “products detected by HPLC and confirmed by LR-LCMS”, the “FtmPT1 M364G-catalyzed alkylation” value (FtmPT1 M364G) was “products detected by HPLC and confirmed by LR-LCMS” and the “CpaD I329G-catalyzed alkylation” value (CpaD I329G) was “products detected by HPLC and confirmed by LR-LCMS”. For the same molecule, the “PhoN-catalyzed phosphorylation” value (PhoN) was “mass ions were detected by HR-LCMS consistent with the expected product”.

With `C=CCCCOP(=O)(O)O` [Substrate 27] the “use as extender unit in place of IPP (GPP analogue by LC-MS), words” value [4] was “not utilized by IspA; also recorded: did not facilitate carbon-carbon bond formation; also recorded: did not serve as an extender unit”, the kcat ([2]; IPK with monophosphorylated substrate, ± SD of the mean) was 93.1 ± 2.67 s⁻¹ and the Km ([2]; IPK with monophosphorylated substrate, ± SD of the mean, 1 mM ATP, 30° C.) was 848 ± 57.9 µM.

For `C=CCC(C)OP(=O)(O)O` (stereo not shown) [Substrate 2], the “FtmPT1-catalyzed alkylation of cyclic dipeptide: expected product detected” value (FtmPT1) was “products detected by HPLC and confirmed by LR-LCMS”, the “CpaD-catalyzed alkylation of cyclic dipeptide: expected product detected” value (CpaD) was “products detected by HPLC and confirmed by LR-LCMS” and the “use as IPK substrate” value [2] was “detectable but kinetically irrelevant”. For the same molecule, the “PhoN-catalyzed phosphorylation” value (PhoN) was “mass ions were detected by HR-LCMS consistent with the expected product”.

With `CCC/C=C\COP(=O)(O)O` [Substrate 7] the “FgaPT2-catalyzed alkylation of Trp” value (FgaPT2) was “mass ions were detected by HR-LCMS consistent with the expected product”.

For `CC(C)=CCC/C(C)=C/COP(=O)(O)O` [GP, geranyl monophosphate], the “phosphorylation by IPK” value [1] was “did not result in detection of the corresponding pyrophosphate”.

With `C#CCCOP(=O)(O)O` [Substrate 9] the “PhoN-catalyzed phosphorylation” value (PhoN) was “mass ions were detected by HR-LCMS consistent with the expected product”.

With `C=CCC(C)OP(=O)(O)OP(=O)(O)O` (stereo not shown) [Substrate 19] the “FgaPT2-catalyzed alkylation of Trp” value (FgaPT2) was “mass ions were detected by HR-LCMS consistent with the expected product”, the “FtmPT1-catalyzed alkylation of cyclic dipeptide: expected product detected” value (FtmPT1) was “products detected by HPLC and confirmed by LR-LCMS” and the “CpaD-catalyzed alkylation of cyclic dipeptide: expected product detected” value (CpaD) was “products detected by HPLC and confirmed by LR-LCMS”. For the same molecule, the “PhoN-catalyzed phosphorylation” value (PhoN) was “mass ions were detected by HR-LCMS consistent with the expected product”.

In the case of `C=C(C)COP(=O)(O)O` [Substrate 5], the “PhoN-catalyzed phosphorylation” value (PhoN) is reported as “mass ions were detected by HR-LCMS consistent with the expected product”.

In the case of `C=C(Br)CCOP(=O)(O)O` [Substrate 3], the “FgaPT2 M328G-catalyzed alkylation of Trp” value (FgaPT2 M328G) is reported as “products detected by HPLC and confirmed by LR-LCMS”, the “kcat fold higher than that with IP” value [2] is reported as 5.1 fold and the “FtmPT1 M364G-catalyzed alkylation” value (FtmPT1 M364G) is reported as “products detected by HPLC and confirmed by LR-LCMS”. For the same molecule, the “CpaD I329G-catalyzed alkylation” value (CpaD I329G) was “products detected by HPLC and confirmed by LR-LCMS” and the “PhoN-catalyzed phosphorylation” value (PhoN) was “mass ions were detected by HR-LCMS consistent with the expected product”.

`CC(C)=CCC/C(C)=C\CC/C(C)=C\COP(=O)(O)O` [FP, farnesyl monophosphate] was tested, and the “phosphorylation by IPK” value [1] was “did not result in detection of the corresponding pyrophosphate”.

With `O=P(O)(O)OP(=O)(O)OCc1cccnc1` [Substrate 32] the “use as extender unit in place of IPP (GPP analogue by LC-MS), words” value [4] was “did not serve as an extender unit”.

B1: isopentenyl phosphate kinase (IPK) (Thermoplasma acidophilum DSM 1728) (protein)
chain: T1 sequence (Q9HLX1 1-245)
With B1 the Km [5] was 27.9 ± 4.37 µM, the kcat [5] was 43.9 ± 1.1 s⁻¹ and the kcat/Km [5] was 1.5e+06 M⁻¹ s⁻¹. For the same molecule, the Km [6] was 134 ± 38.2 µM, the kcat [6] was 32.7 ± 2.05 s⁻¹ and the kcat/Km [6] was 230000 M⁻¹ s⁻¹.
